{"source": "the supplement of paper PMC10307832", "experiment_in_all_cases": "relative viability (nuclei count vs DMSO), 5 days (fraction); higher = more cells survive", "key": {"[1]": {"test_system": "NCI-H1703", "how_it_was_run": "(§1)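 Relative viability equals treated-well nuclei counts divided by vehicle-well nuclei counts. Counts came from 4× images of lung cancer cell lines grown in 1536-well plates for 5 days after pin-tool dosing on the day after seeding. Dosing used one drug alone or a fixed anchor-drug dose plus five library-drug doses (not always all listed) in √10 steps, and values are medians of duplicate plates.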"}, "[2]": {"test_system": "EBC-1", "how_it_was_run": "as §1"}, "[3]": {"test_system": "A549", "how_it_was_run": "as §1"}, "[4]": {"test_system": "IA-LM", "how_it_was_run": "as §1"}, "[5]": {"test_system": "Calu-6", "how_it_was_run": "as §1"}, "[6]": {"test_system": "NCI-H1563", "how_it_was_run": "as §1"}, "[7]": {"test_system": "NCI-H1299", "how_it_was_run": "as §1"}}}
{"smiles": "Cc1cnc(-c2cnc(NCCNc3ccc(C#N)cn3)nc2-c2ccc(Cl)cc2Cl)[nH]1", "note": "+ C[C@]1(O)C[C@@H](c2nc(-c3ccc4ccc(-c5ccccc5)nc4c3)c3c(N)nccn32)C1 [Linsitinib] (partner 1 µM)", "values": [{"measurement": "relative viability", "setting": "[1]; first compound 0.08 µM", "value": 0.986}, {"measurement": "relative viability", "setting": "[1]; first compound 0.253 µM", "value": 0.631}, {"measurement": "relative viability", "setting": "[1]; first compound 0.8 µM", "value": 0.884}, {"measurement": "relative viability", "setting": "[1]; first compound 2.53 µM", "value": 1.21}, {"measurement": "relative viability", "setting": "[2]; first compound 0.08 µM", "value": 0.913}, {"measurement": "relative viability", "setting": "[2]; first compound 0.253 µM", "value": 0.713}, {"measurement": "relative viability", "setting": "[2]; first compound 0.8 µM", "value": 0.859}, {"measurement": "relative viability", "setting": "[2]; first compound 2.53 µM", "value": 0.819}, {"measurement": "relative viability", "setting": "[3]; first compound 0.08 µM", "value": 0.719}, {"measurement": "relative viability", "setting": "[3]; first compound 0.253 µM", "value": 0.477}, {"measurement": "relative viability", "setting": "[3]; first compound 0.8 µM", "value": 0.468}, {"measurement": "relative viability", "setting": "[3]; first compound 2.53 µM", "value": 0.548}, {"measurement": "relative viability", "setting": "[4]; first compound 0.08 µM", "value": 0.604}, {"measurement": "relative viability", "setting": "[4]; first compound 0.253 µM", "value": 0.257}, {"measurement": "relative viability", "setting": "[4]; first compound 0.8 µM", "value": 0.744}, {"measurement": "relative viability", "setting": "[4]; first compound 2.53 µM", "value": 0.542}, {"measurement": "relative viability", "setting": "[5]; first compound 0.08 µM", "value": 1.01}, {"measurement": "relative viability", "setting": "[5]; first compound 0.253 µM", "value": 0.888}, {"measurement": "relative viability", "setting": "[5]; first compound 2.53 µM", "value": 0.971}, {"measurement": "relative viability", "setting": "[6]; first compound 0.08 µM", "value": 1.33}, {"measurement": "relative viability", "setting": "[6]; first compound 0.253 µM", "value": 1.2}, {"measurement": "relative viability", "setting": "[6]; first compound 0.8 µM", "value": 1.22}, {"measurement": "relative viability", "setting": "[6]; first compound 2.53 µM", "value": 1.1}, {"measurement": "relative viability", "setting": "[7]; first compound 0.08 µM", "value": 0.882}, {"measurement": "relative viability", "setting": "[7]; first compound 0.253 µM", "value": 0.967}, {"measurement": "relative viability", "setting": "[7]; first compound 0.8 µM", "value": 0.503}, {"measurement": "relative viability", "setting": "[7]; first compound 2.53 µM", "value": 0.861}]}
{"smiles": "O=c1[nH]c2ccccc2n1C1CCN(CCCC(c2ccc(F)cc2)c2ccc(F)cc2)CC1", "note": "[Pimozide] + C[C@@H](Oc1cc(-c2cnn(C3CCNCC3)c2)cnc1N)c1c(Cl)ccc(F)c1Cl [Crizotinib] (partner 1 µM)", "values": [{"measurement": "relative viability", "setting": "[1]; first compound 0.08 µM", "value": 0.489}, {"measurement": "relative viability", "setting": "[1]; first compound 0.253 µM", "value": 0.852}, {"measurement": "relative viability", "setting": "[1]; first compound 0.8 µM", "value": 0.666}, {"measurement": "relative viability", "setting": "[1]; first compound 2.53 µM", "value": 0.403}, {"measurement": "relative viability", "setting": "[1]; first compound 8 µM", "value": 0.545}, {"measurement": "relative viability", "setting": "[2]; first compound 0.08 µM", "value": 0.19}, {"measurement": "relative viability", "setting": "[2]; first compound 0.253 µM", "value": 0.232}, {"measurement": "relative viability", "setting": "[2]; first compound 0.8 µM", "value": 0.199}, {"measurement": "relative viability", "setting": "[2]; first compound 2.53 µM", "value": 0.175}, {"measurement": "relative viability", "setting": "[2]; first compound 8 µM", "value": 0.152}, {"measurement": "relative viability", "setting": "[3]; first compound 0.08 µM", "value": 0.756}, {"measurement": "relative viability", "setting": "[3]; first compound 0.253 µM", "value": 0.668}, {"measurement": "relative viability", "setting": "[3]; first compound 0.8 µM", "value": 0.643}, {"measurement": "relative viability", "setting": "[3]; first compound 2.53 µM", "value": 0.658}, {"measurement": "relative viability", "setting": "[3]; first compound 8 µM", "value": 0.644}, {"measurement": "relative viability", "setting": "[4]; first compound 0.08 µM", "value": 0.975}, {"measurement": "relative viability", "setting": "[4]; first compound 0.253 µM", "value": 0.88}, {"measurement": "relative viability", "setting": "[4]; first compound 0.8 µM", "value": 0.988}, {"measurement": "relative viability", "setting": "[4]; first compound 2.53 µM", "value": 0.879}, {"measurement": "relative viability", "setting": "[4]; first compound 8 µM", "value": 0.859}, {"measurement": "relative viability", "setting": "[5]; first compound 0.08 µM", "value": 0.781}, {"measurement": "relative viability", "setting": "[5]; first compound 0.253 µM", "value": 0.814}, {"measurement": "relative viability", "setting": "[5]; first compound 0.8 µM", "value": 0.793}, {"measurement": "relative viability", "setting": "[5]; first compound 2.53 µM", "value": 0.679}, {"measurement": "relative viability", "setting": "[5]; first compound 8 µM", "value": 0.624}, {"measurement": "relative viability", "setting": "[6]; first compound 0.08 µM", "value": 0.824}, {"measurement": "relative viability", "setting": "[6]; first compound 0.253 µM", "value": 0.844}, {"measurement": "relative viability", "setting": "[6]; first compound 0.8 µM", "value": 0.803}, {"measurement": "relative viability", "setting": "[6]; first compound 2.53 µM", "value": 0.775}, {"measurement": "relative viability", "setting": "[6]; first compound 8 µM", "value": 0.645}, {"measurement": "relative viability", "setting": "[7]; first compound 0.08 µM", "value": 0.955}, {"measurement": "relative viability", "setting": "[7]; first compound 0.253 µM", "value": 0.838}, {"measurement": "relative viability", "setting": "[7]; first compound 0.8 µM", "value": 0.934}, {"measurement": "relative viability", "setting": "[7]; first compound 2.53 µM", "value": 0.811}, {"measurement": "relative viability", "setting": "[7]; first compound 8 µM", "value": 0.885}]}
{"smiles": "O=C(O)CCCCC(CCSCc1ccccc1)SCc1ccccc1", "note": "(configuration not stated) [CPI-613] + CS(=O)(=O)CCNCc1ccc(-c2ccc3ncnc(Nc4ccc(OCc5cccc(F)c5)c(Cl)c4)c3c2)o1 [Lapatinib] (partner 2 µM)", "values": [{"measurement": "relative viability", "setting": "[1]; first compound 5 µM", "value": 0.943}, {"measurement": "relative viability", "setting": "[1]; first compound 15.81 µM", "value": 1.11}, {"measurement": "relative viability", "setting": "[1]; first compound 50 µM", "value": 1.1}, {"measurement": "relative viability", "setting": "[1]; first compound 158.11 µM", "value": 0.452}, {"measurement": "relative viability", "setting": "[1]; first compound 500 µM", "value": 0.274}, {"measurement": "relative viability", "setting": "[2]; first compound 5 µM", "value": 0.252}, {"measurement": "relative viability", "setting": "[2]; first compound 15.81 µM", "value": 0.213}, {"measurement": "relative viability", "setting": "[2]; first compound 50 µM", "value": 0.212}, {"measurement": "relative viability", "setting": "[2]; first compound 158.11 µM", "value": 0.175}, {"measurement": "relative viability", "setting": "[2]; first compound 500 µM", "value": 0.145}, {"measurement": "relative viability", "setting": "[3]; first compound 5 µM", "value": 0.933}, {"measurement": "relative viability", "setting": "[3]; first compound 15.81 µM", "value": 0.967}, {"measurement": "relative viability", "setting": "[3]; first compound 50 µM", "value": 0.787}, {"measurement": "relative viability", "setting": "[3]; first compound 158.11 µM", "value": 0.348}, {"measurement": "relative viability", "setting": "[3]; first compound 500 µM", "value": 0.249}, {"measurement": "relative viability", "setting": "[4]; first compound 5 µM", "value": 0.694}, {"measurement": "relative viability", "setting": "[4]; first compound 15.81 µM", "value": 0.802}, {"measurement": "relative viability", "setting": "[4]; first compound 50 µM", "value": 0.665}, {"measurement": "relative viability", "setting": "[4]; first compound 158.11 µM", "value": 0.269}, {"measurement": "relative viability", "setting": "[4]; first compound 500 µM", "value": 0.208}, {"measurement": "relative viability", "setting": "[5]; first compound 5 µM", "value": 1.04}, {"measurement": "relative viability", "setting": "[5]; first compound 15.81 µM", "value": 1.03}, {"measurement": "relative viability", "setting": "[5]; first compound 50 µM", "value": 0.866}, {"measurement": "relative viability", "setting": "[5]; first compound 158.11 µM", "value": 0.775}, {"measurement": "relative viability", "setting": "[5]; first compound 500 µM", "value": 0.563}, {"measurement": "relative viability", "setting": "[6]; first compound 5 µM", "value": 1}, {"measurement": "relative viability", "setting": "[6]; first compound 15.81 µM", "value": 0.886}, {"measurement": "relative viability", "setting": "[6]; first compound 50 µM", "value": 0.998}, {"measurement": "relative viability", "setting": "[6]; first compound 158.11 µM", "value": 0.427}, {"measurement": "relative viability", "setting": "[6]; first compound 500 µM", "value": 0.103}, {"measurement": "relative viability", "setting": "[7]; first compound 5 µM", "value": 0.923}, {"measurement": "relative viability", "setting": "[7]; first compound 15.81 µM", "value": 0.945}, {"measurement": "relative viability", "setting": "[7]; first compound 50 µM", "value": 0.965}, {"measurement": "relative viability", "setting": "[7]; first compound 158.11 µM", "value": 0.899}, {"measurement": "relative viability", "setting": "[7]; first compound 500 µM", "value": 0.888}]}
